The target in the test is T1, human TRPM8 (Homo sapiens, UniProt Q7Z2W7).
T1 construct: expressed in transfected cells
Description: Menthol-induced Ca2+ influx in HEK293 cells stably expressing human TRPM8. Particulars: 30 microM menthol-induced Ca2+ influx, HEK293 cells stably expressing human TRPM8, 11-point dose-response. Format: cell-based. As to the method: Measurement of the Menthol-Induced Ca^2+ Influx in HEK293 Cells Stably Expressing Human TRPM8
A cell-based Ca^2+ influx assay using HEK293 cells stably expressing human TRPM8 was used to identify the activity of compounds.
HEK293 cells stably expressing human TRPM8 were grown in T175 flasks at 37° C. in a 5% CO2 humidified incubator to about 80% confluence. Media composition consisted of Dulbecco's Modified Eagle Medium (high glucose), 10% fetal calf serum (FCS), 100 units/ml Penicillin, 100 microg/ml Streptomycin and 600 microg/ml Geneticine. At 24 hours prior to assay, cells were seeded in poly-D-lysine coated 384-well plates (BD FALCON) at a density of 30,000 cells per well in culture medium and grown overnight in 5% CO2 at 37° C. On the assay day, growth media was removed and cells were loaded with 0.5 microM Fluo4-AM (Molecular Probes) and 0.005% Pluronic F-127 dissolved in assay buffer (Hank's balanced salt solution (HBSS), 19.4 mM HEPES pH7.4, 2.5 mM Probenecid) for 1 hour at room temperature. After washing with assay buffer, the cells were preincubated with various concentrations of the compounds for 5 min. The changes in intracellular calcium concentration by addition of 30 microM menthol were monitored by the cell imaging technology by Hamamatsu Photonics's Functional Drug Screening System (FDSS).
The IC50 values for compounds of the present invention were determined from 11-point dose-response studies. Curves were generated using the average of duplicate wells for each data point. Finally, the IC50 values are calculated with the best-fit dose curve determined by XLfit (ID Business Solutions Ltd.).

T1 sequence (Q7Z2W7 whole entry): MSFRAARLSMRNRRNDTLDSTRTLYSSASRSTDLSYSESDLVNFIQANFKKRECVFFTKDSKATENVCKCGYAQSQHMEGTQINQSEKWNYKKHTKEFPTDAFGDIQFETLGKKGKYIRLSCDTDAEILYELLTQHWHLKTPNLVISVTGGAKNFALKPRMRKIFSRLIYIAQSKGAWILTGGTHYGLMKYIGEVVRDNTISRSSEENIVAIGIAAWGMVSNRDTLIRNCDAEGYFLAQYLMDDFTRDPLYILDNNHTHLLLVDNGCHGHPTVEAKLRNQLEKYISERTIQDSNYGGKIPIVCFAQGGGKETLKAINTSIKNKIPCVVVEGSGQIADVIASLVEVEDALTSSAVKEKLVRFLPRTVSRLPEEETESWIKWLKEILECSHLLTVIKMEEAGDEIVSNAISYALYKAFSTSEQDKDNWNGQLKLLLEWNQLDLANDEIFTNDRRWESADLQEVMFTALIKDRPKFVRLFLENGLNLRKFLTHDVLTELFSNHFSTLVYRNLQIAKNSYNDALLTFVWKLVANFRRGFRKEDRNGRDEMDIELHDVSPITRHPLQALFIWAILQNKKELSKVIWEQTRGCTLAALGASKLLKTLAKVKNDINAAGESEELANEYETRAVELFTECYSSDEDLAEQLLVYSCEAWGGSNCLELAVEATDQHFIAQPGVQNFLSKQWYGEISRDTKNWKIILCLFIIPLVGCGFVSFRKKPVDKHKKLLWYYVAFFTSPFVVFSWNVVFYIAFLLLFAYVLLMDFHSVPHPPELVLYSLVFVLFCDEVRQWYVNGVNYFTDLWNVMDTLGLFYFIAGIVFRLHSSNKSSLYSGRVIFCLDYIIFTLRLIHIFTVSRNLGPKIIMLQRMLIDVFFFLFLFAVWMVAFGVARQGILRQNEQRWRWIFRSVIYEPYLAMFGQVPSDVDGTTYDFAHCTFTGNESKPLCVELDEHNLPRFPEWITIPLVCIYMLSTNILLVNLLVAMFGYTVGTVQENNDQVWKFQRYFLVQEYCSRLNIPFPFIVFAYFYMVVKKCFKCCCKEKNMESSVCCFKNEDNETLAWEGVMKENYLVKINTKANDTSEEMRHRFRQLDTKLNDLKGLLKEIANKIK

As for `O=C(O)c1ccc(S(=O)(=O)N(Cc2ccc3c(cnn3C3CC3)c2)c2ncc(Cl)cc2Cl)c(Cl)c1` [Example 32, 3-Chloro-4-(N-((1-cyclopropyl-1H-indazol-5-yl)methyl)-N-(3,5-dichloropyridin-2-yl)sulfamoyl)benzoic acid], the half-maximal inhibitory concentration (IC50) was < 1000 nM.

Take `Cc1cc(C(=O)O)ccc1S(=O)(=O)N(Cc1ccc2c(cnn2C2CC2)c1)c1ncc(C(F)(F)F)cc1Cl` [Example 33, 4-(N-(3-Chloro-5-(trifluoromethyl)pyridin-2-yl)-N-((1-cyclopropyl-1H-indazol-5-yl)methyl)sulfamoyl)-3-methylbenzoic acid]: the IC50 was < 1000 nM.

Regarding `Cc1cc(C(=O)O)ccc1S(=O)(=O)N(Cc1ccc2c(cnn2C2CC2)c1)c1ncc(Cl)cc1Cl` [Example 34, 4-(N-((1-Cyclopropyl-1H-indazol-5-yl)methyl)-N-(3,5-dichloropyridin-2-yl)sulfamoyl)-3-methylbenzoic acid], the half-inhibitory concentration (IC50) was < 1000 nM.

In the case of `Cn1ccc2cc(CN(c3ncc(C(F)(F)F)cc3Cl)S(=O)(=O)c3ccc(C(=O)O)cc3Cl)cnc21` [Example 35, 3-Chloro-4-(N-(3-chloro-5-(trifluoromethyl)pyridin-2-yl)-N-((1-methyl-1H-pyrrolo[2,3-b]pyridin-5-yl)methyl)sulfamoyl)benzoic acid], the IC50 was < 1000 nM.

`Cn1ccc2cc(CN(c3ncc(Cl)cc3Cl)S(=O)(=O)c3ccc(C(=O)O)cc3Cl)cnc21` [Example 36, 3-Chloro-4-(N-(3,5-dichloropyridin-2-yl)-N-((1-methyl-1H-pyrrolo[2,3-b]pyridin-5-yl)methyl)sulfamoyl)benzoic acid] showed a half-inhibitory concentration (IC50) of 1000 to 10000 nM.

For the compound `Cn1ccc2cc(CN(c3ncc(C(F)(F)F)cc3Cl)S(=O)(=O)c3ccc(C(=O)O)cc3)cnc21` [Example 37, 4-(N-(3-Chloro-5-(trifluoromethyl)pyridin-2-yl)-N-((1-methyl-1H-pyrrolo[2,3-b]pyridin-5-yl)methyl)sulfamoyl)benzoic acid], the 50% inhibitory concentration (IC50) is < 1000 nM.

As for `O=C(O)c1ccc(S(=O)(=O)N(Cc2cnc3ccccc3c2)c2ncc(C(F)(F)F)cc2Cl)cc1` [Example 38, 4-(N-(3-Chloro-5-(trifluoromethyl)pyridin-2-yl)-N-(quinolin-3-ylmethyl)sulfamoyl)benzoic acid], the 50% inhibitory concentration (IC50) is < 1000 nM.

On to `O=C(O)c1ccc(S(=O)(=O)N(Cc2ccc3ncccc3c2)c2ncc(C(F)(F)F)cc2Cl)cc1` [Example 39, 4-(N-(3-Chloro-5-(trifluoromethyl)pyridin-2-yl)-N-(quinolin-6-ylmethyl)sulfamoyl)benzoic acid], for which the half-inhibitory concentration (IC50) is < 1000 nM.

The values are drawn from patent publication US8829026B2, “Sulfamoyl benzoic acid heterobicyclic derivatives as TRPM8 antagonists” (RaQualia Pharma Inc., priority 2010, dated 2014).
